The source of these data is a melting point compilation (Tetko et al.; mined from patent text by program, amines drawn as free bases though some values may be those of a salt).

SMILES strings stand for the structures.

A word on the melting point: it is the temperature, or range, at which the solid turns liquid.

In turn, `O=c1cc(-c2ccc(O)c(F)c2)oc2ccccc12` registered a melting point of 275 to 276 °C. `CC(C)(C)c1nn(-c2ccc(N)cc2Cl)c(=O)o1` had a melting point of 158 to 159 °C.

The compound `CCOC(=O)c1cc(=O)c2cc(C(=O)OCC)c(C(=O)OCC)nc2o1` returned a melting point of 106 °C. Regarding `CCc1csc(-c2ccc(OCCC3CCN(c4ccc(C)nn4)CC3)cc2)n1`, the melting point was determined as 113 °C. With `C=Cc1ccc(C=O)cc1`, the melting point came to 65.9 °C. Compound `COC(=O)CCCc1cc2cc(Cl)ccc2n1S(=O)(=O)c1ccc2nc(C)sc2c1` yielded a melting point of 151 to 153 °C. In turn, `CCCn1c(=O)n(-c2ccc3c(c2)OCO3)c2ncc(NC(=O)OCC)cc21` gave a melting point of 146 to 147 °C.

`CCCOc1oc(=O)c2cc(NC(=O)NCC)ccc2c1Cl` returned a melting point of 189 to 191 °C. Compound `CCOc1ccc(-c2nc(CCl)cs2)cc1OCC` gave a melting point of 81.5 to 82.3 °C. For `Cc1oc(-c2ccccc2)nc1C=Cc1ccc(/C=C/C=C2/OC(=O)NC2=O)cc1` the value was 274 to 275 °C; for `Cc1ccc(C(F)C(F)(F)S(=O)(=O)c2ccccc2)cc1` (stereo unspecified), 80 to 82 °C; for `COc1ccc(/C=C/C(=O)c2cccc(O)c2)cc1OC`, 138 to 139 °C. For `CC(C)Cn1c(C(F)(F)F)nc2ccc(-n3c(=O)cc(C(F)(F)F)n(C)c3=O)cc21` the value was 156 to 159 °C; for `CC(C)c1cccc(C(C)C)c1NC(=O)CN1CCN(CCSc2nc3ccccc3s2)CC1`, 170 to 171 °C; for `Fc1ccc2c(c1)C1OC1c1ccccc1C2` (stereo unspecified), 239 °C.

The compound `CCOC(=O)c1[nH]c(CC)c(CC)c1C` came in with a melting point of 71 to 73 °C.

Compound `CCn1ncc2c3noc(C)c3cnc21` had a melting point of 181 to 182 °C. For `CC(=O)NC[C@H]1CN(c2ccc(N3CCC(=C(C#N)n4ccnc4)CC3)c(F)c2)C(=O)O1` the value was 196 to 198 °C. With `CCOC(=O)CN1C(=O)C(NC(=O)c2ccc3ccccc3c2)C(c2ccc(OC)cc2)Sc2ccccc21` (stereo unspecified) the figure was 183 to 186 °C; with `COc1cc(COc2nn(-c3ccccc3)cc2C=O)ccc1OCc1nc(-c2ccccc2)cn1C`, 126 to 127 °C; with `COC(=O)c1cc(Cl)ncc1[N+](=O)[O-]`, 60.5 to 64.1 °C. For `O=C(O)C1=Cc2cc(Cl)cc(-c3nc4ccccc4[nH]3)c2OC1C(F)(F)F` (stereo unspecified) the value was > 300 °C; for `O=C(NCCCC(=O)N1CCCC1=O)c1cc(Br)no1`, 141 to 142 °C; for `O=C(O)C1Cc2ccccc2N1S(=O)(=O)c1ccc(-c2cc(C(F)(F)F)ccc2Cl)cc1` (stereo unspecified), 79 to 83 °C. Compound `Cc1cc(Br)cc(C)c1NC(=O)C(C)Br` (stereo unspecified) yielded a melting point of 187 to 189 °C. With `COC(=O)c1cccc2nc(SCCCN3CCCN(CC(=O)Nc4c(C(C)C)cccc4C(C)C)CC3)oc12` the figure was 83 to 85 °C; with `N#Cc1c(Cl)nc2ccc([N+](=O)[O-])cc2c1Cl`, 190 to 192 °C. For `CC(C)N(CCC1(c2ccccn2)CCC(=O)NC1=O)C(C)C` (stereo unspecified) the value was 101 to 102 °C. For `CCn1c(CCl)nc2c([N+](=O)[O-])cc(Br)cc21` the value was 154 to 155 °C. On to `CCNC(=O)Nc1nc2cc(-c3cccnc3)cc(OCCN(C)C)n2n1`, for which the melting point lay within 200 to 202 °C. Regarding `Cc1cc(C)n(-c2cnc(CN)c(Nc3ccc(Cl)cc3)n2)n1`, the melting point was in the range of 156 to 160 °C.

`CCOC(=O)C(=O)c1cn(CC)c2cc(-c3ccc(C(F)(F)F)cc3)ccc12` had a melting point of 139 to 141 °C. For `Nc1n[nH]cc1C(=O)c1ccccc1` the value was 177 to 179 °C; for `COc1cc2cc(C(=O)OC(C)(C)C)c(N)cc2cc1O`, 262 to 263 °C. The compound `COC(=O)Cc1cccc(CC(=O)OC)c1[N+](=O)[O-]` yielded a melting point of 144 to 145 °C. Take `O=C(O)CCc1cc2cc(Cl)ccc2n1S(=O)(=O)c1ccc(Oc2ccccc2)cc1`: the melting point was 70 to 75 °C.

Turning to `O=C(c1ccc(-c2ccncc2)cc1)N1CCN(S(=O)(=O)c2nc3ccc(Cl)cc3[nH]2)CC1`, the melting point lay in the range of 242 to 244 °C. For `O=C(CNC(=O)c1ccncc1)NC1CCN(CCc2c[nH]c3ccccc23)CC1` the value was 211 to 215 °C; for `COCc1ccc(Cc2cccc(-c3c(O)c4ccc(Cl)cc4[nH]c3=O)c2)cc1`, 276 to 278 °C.

`NN=C1C(=O)Nc2cccc(Cl)c21`: the melting point was 235 to 236 °C. For `Cc1nnc(-c2cc(Cl)c(Cl)c(Cl)n2)s1` the value was 148 to 150 °C; for `CCOC(=O)C(=CNC1CC1)C(=O)c1cc(F)c(Cl)nc1Cl`, 129 to 130 °C. For `c1ccc2c(c1)CCC1(CCOCC1)NC2` the value was 76 to 78 °C. In the case of `Cc1nc(O)c2c(n1)N(c1c(C)cc(Br)cc1C)C(=O)C2C` (stereo unspecified), the melting point was in the range of 271 to 273 °C. With `O=c1n(-c2ccc(N3CCNCC3)cc2)cnn1CC(F)(F)C(F)F`, the melting point lay within 155 to 157 °C. With `CCOC(=O)c1cc2c3cccc(OC)c3ncn2c1` the figure was 154 to 155 °C; with `COc1cc(CSc2nc3cnccc3[nH]2)cc(OC)c1`, 177 to 179 °C. Regarding `CC1(C)CC(=O)c2c(Nc3ccccn3)cn(-c3ccccn3)c2C1`, the melting point lay in the range of 180 to 183 °C. In turn, `CC1(C)CCc2[nH]cc(C(=O)O)c2C1=O` registered a melting point of 225 to 228 °C. With `CC1CCCC=C1c1ccc(C(=O)N2Cc3cccn3Cc3ccccc32)cc1` (stereo unspecified) the figure was 108 to 109 °C; with `Cc1c(C(=O)Nc2nncs2)nnn1Cc1ccc(Cl)c(Cl)c1`, 216 °C.

As to `COc1c(Cl)c(C=O)c(Cl)c(OC)c1OC`, the melting point was determined as 76 °C. With `Cc1cc([N+](=O)[O-])ccc1NC(=O)C1=C(O)N(C)S(=O)(=O)c2sccc21` the figure was 189 to 191 °C; with `CCC(=O)OC1(C(=O)CCl)C(C)CC2C3CCC4CC(=O)CCC4(C)C3(Cl)C(Cl)CC21C` (stereo unspecified), 164 °C. For `CC(C)(C)C(=O)C(C(Sc1ccccc1)c1ccc(F)cc1)n1cncn1` (stereo unspecified) the value was 175 °C; for `CN(C)C(=O)Cn1nc(-c2ccccc2O)nc1-c1ccccc1O`, 196 to 197 °C. With `COC(=O)c1cc(Cl)cc(C(F)(F)F)n1` the figure was 62 to 63 °C. Compound `COc1ccc(CC(=O)c2ccc(OC)cc2OC)cc1` registered a melting point of 78.5 to 79.5 °C.

`COc1cc(COc2cc(C#N)n(-c3ccccc3)n2)ccc1OCc1nc(-c2ccccc2)oc1C` returned a melting point of 120 to 121 °C. With `C=C1c2c(ccc(OC(C)=O)c2OC(C)=O)C(=O)N2CCCCC12` (stereo unspecified) the figure was 129 to 132 °C.

`O=C(Nc1ccc2c(c1)nc1n2CCC1)c1cc2cccnc2n1Cc1ccccc1` showed a melting point of 251 to 252 °C. In the case of `CSc1nnc(-c2ccc(Cl)nc2)s1`, the melting point was 136 °C. In turn, `O=C(O)c1ccc(C(=O)NOCCC23CC4CC(CC(C4)C2)C3)cc1` had a melting point of 197 to 200 °C. For `CC(=O)c1cc(-c2ccncc2)[nH]c1C` the value was 236 to 237 °C; for `CCCCCCCCCCCCCCCCOC(=O)Cl`, > 230 °C; for `CCOc1cccc(OCC)c1NC(=O)Cc1c(-c2ccccc2OC)c2cc(Cl)ccc2n1C`, 180 to 183 °C.

`COc1cnc(CSc2nc3cc4c(cc3[nH]2)OC(F)(F)O4)c(C)c1OC` displayed a melting point of 160 to 161 °C. `Cc1cccc(NC(=O)C=Cc2cn(C)nc2[N+](=O)[O-])n1` displayed a melting point of 191 to 193 °C. With `COC(=O)Cn1c(=O)c2ccccc2n(CCCCCl)c1=O` the figure was 119 to 120 °C; with `O=S(=O)(Cc1ccccc1)c1nnnn1Cc1ccccc1`, 94 to 96 °C; with `O=C(CCC(=O)N1CCC(c2ccc(Cl)cc2)CC1)c1ccc2c(c1)CN(Cc1ccccc1)CC2`, 102 to 103 °C. For `O=C(Nc1ccc(Br)cc1)N1CCN2CCC1CC2` the value was 228 to 231 °C.

Compound `Cc1ccc(CN2C(=NCCCn3ccnc3)c3cccc4cccc2c34)cc1` displayed a melting point of 94 to 95 °C.

Regarding `O=C(CCC(F)([N+](=O)[O-])[N+](=O)[O-])NNC(=O)C(F)(F)C(F)(F)F`, the melting point was in the range of 128 to 132 °C. With `CCOC(=O)c1c(-c2cccc(C)c2)csc1N1C(=O)c2ccccc2C1=O` the figure was 175 to 176 °C; with `CC1N=C(c2ccccc2)c2cc(Cl)ccc2NC1=S` (stereo unspecified), 250 °C. `CCNC(=O)c1sc(SC)c2c1CCc1sc(-c3ccccc3)nc1-2` displayed a melting point of 211 to 212 °C.

`CNC(=O)CC1CSC2=C(C(=O)OC(C)C)CCN21` (stereo unspecified) displayed a melting point of 79 to 95 °C.

For the compound `CCCn1cc2c(C3C(=O)Nc4ccc(Br)cc43)nc(NCC3CCCO3)nc2n1` (stereo unspecified), the melting point lay within 309 to 312 °C. As for `CCOC(=O)c1cnc2c3cc(NC(=O)C(C)C(C)CC)ccc3c(C)cn2c1=O` (stereo unspecified), the melting point fell in the range of 216 to 218 °C.

`CCOCc1nc2cnc3cc(Br)cnc3c2n1CC(C)(C)F`: the melting point lay within 127 to 128 °C. With `C=C1CCN(c2cn(-c3cccnc3)nc2Cl)C1=O` the figure was 117 to 118 °C. With `COc1cccc2c1cc(C)n2Cc1ccc(F)cc1` the figure was 104 to 108 °C; with `O=C(O)CC[C@H](NC(=O)c1ccc(CCn2cnc3nccc-3c2O)cc1)C(=O)O`, > 230 °C; with `COC(=O)[C@H](c1ccccc1Cl)N1CCc2sc(OC(=O)c3cccnc3)cc2C1`, 92 to 94 °C.

Compound `CN(CCOc1ccc(CCO)cc1)c1nc2ccccc2o1` displayed a melting point of 95 to 97 °C. `CCN(CC)CCN=C=S` returned a melting point of 83 to 83.5 °C. `CN1CCC(OC(c2cccc(C#CCCCN)c2)c2nc3ccccc3[nH]2)CC1` (stereo unspecified) returned a melting point of 82 °C. Take `CCCc1nc2c(N)nc(Cl)c(C)c2n1CCOCCN`: the melting point was in the range of 158 to 161 °C. In turn, `CCCCCCCCCCCCOC(CCCCCCCCCCCC)COCC(O)COc1ccc(N2CCOCC2)cc1` (stereo unspecified) gave a melting point of 49 to 52 °C.

As for `OCC1OC(n2cnc3c(NCc4ccccc4Cl)ncnc32)C(O)C1O` (stereo unspecified), the melting point was 182 to 183 °C.
